# According to ChEMBL document CHEMBL3885881, “DrugMatrix”:
# Organism: Rattus norvegicus
# Assay: DrugMatrix - Regimen: Daily Repeat
# Format: toxicity, organism-based, Sprague-Dawley
# Design: regimen Daily Repeat, gender Male, age 6-8 weeks
# Details: in vivo, po, 750 mg/kg, route oral GAVAGE, dose level High, vehicle .5 % CMC; for BASOPHIL / EOSINOPHIL / ERYTHROCYTE COUNT / HEMATOCRIT / HEMOGLOBIN / LEUKOCYTE COUNT / LYMPHOCYTE / MEAN CORPUSCULAR HEMOGLOBIN / MEAN CORPUSCULAR HEMOGLOBIN CONCENTRATION / MEAN CORPUSCULAR VOLUME / MONOCYTE / NEUTROPHIL / PLATELET COUNT: tissue Blood; for ALANINE AMINOTRANSFERASE / ALBUMIN / ALKALINE PHOSPHATASE / ASPARTATE AMINOTRANSFERASE / BLOOD UREA NITROGEN / CARBON DIOXIDE / CHLORIDE / CHOLESTEROL / CREATINE PHOSPHOKINASE / CREATININE / GLUCOSE / LACTATE DEHYDROGENASE / LIPASE / PHOSPHORUS / POTASSIUM / SODIUM / TOTAL BILIRUBIN / TOTAL PROTEIN / URIC ACID: tissue Plasma
structure (smiles),measurement,setting,value
ClC(Cl)(Cl)C(Cl)(Cl)Cl [HEXACHLOROETHANE],BASOPHIL,"96 h, time 4 day",0.3%
same,EOSINOPHIL,"96 h, time 4 day",0.6%
same,ERYTHROCYTE COUNT,"96 h, time 4 day",7.16 x10E6/uL
same,HEMATOCRIT,"96 h, time 4 day",45.77%
same,HEMOGLOBIN,"96 h, time 4 day",14.9 G/DL
same,LEUKOCYTE COUNT,"96 h, time 4 day",12.35 x10E3/uL
same,LYMPHOCYTE,"96 h, time 4 day",79.87%
same,MEAN CORPUSCULAR HEMOGLOBIN,"96 h, time 4 day",20.77 pg
same,MEAN CORPUSCULAR HEMOGLOBIN CONCENTRATION,"96 h, time 4 day",32.5 G/DL
same,MEAN CORPUSCULAR VOLUME,"96 h, time 4 day",63.9 fL
same,MONOCYTE,"96 h, time 4 day",2.47%
same,NEUTROPHIL,"96 h, time 4 day",16.1%
same,PLATELET COUNT,"96 h, time 4 day",1434.33 x10E3/uL
same,ALANINE AMINOTRANSFERASE,"96 h, time 4 day",28 u/L
same,ALBUMIN,"96 h, time 4 day",3.87 G/DL
same,ALKALINE PHOSPHATASE,"96 h, time 4 day",292 u/L
same,ASPARTATE AMINOTRANSFERASE,"96 h, time 4 day",63.67 u/L
same,BLOOD UREA NITROGEN,"96 h, time 4 day",17.67 mg/dL
same,CARBON DIOXIDE,"96 h, time 4 day",21.67 mmol/L
same,CHLORIDE,"96 h, time 4 day",108.33 MEQ/L
same,CHOLESTEROL,"96 h, time 4 day",74.67 mg/dL
same,CREATINE PHOSPHOKINASE,"96 h, time 4 day",242 u/L
same,CREATININE,"96 h, time 4 day",0.43 mg/dL
same,GLUCOSE,"96 h, time 4 day",177 mg/dL
same,LACTATE DEHYDROGENASE,"96 h, time 4 day",82 u/L
same,LIPASE,"96 h, time 4 day",19 u/L
same,PHOSPHORUS,"96 h, time 4 day",11.57 mg/dL
same,POTASSIUM,"96 h, time 4 day",5.67 MEQ/L
same,SODIUM,"96 h, time 4 day",150 MEQ/L
same,TOTAL BILIRUBIN,"96 h, time 4 day",0.23 mg/dL
same,TOTAL PROTEIN,"96 h, time 4 day",6.5 G/DL
same,URIC ACID,"96 h, time 4 day",1.17 mg/dL
same,BASOPHIL,"[…], time 6 day",0.4%
same,EOSINOPHIL,"[…], time 6 day",0.57%
same,ERYTHROCYTE COUNT,"[…], time 6 day",7.65 x10E6/uL
same,HEMATOCRIT,"[…], time 6 day",47.3%
same,HEMOGLOBIN,"[…], time 6 day",15.03 G/DL
same,LEUKOCYTE COUNT,"[…], time 6 day",11.09 x10E3/uL
same,LYMPHOCYTE,"[…], time 6 day",86.53%
same,MEAN CORPUSCULAR HEMOGLOBIN,"[…], time 6 day",19.67 pg
same,MEAN CORPUSCULAR HEMOGLOBIN CONCENTRATION,"[…], time 6 day",31.77 G/DL
same,MEAN CORPUSCULAR VOLUME,"[…], time 6 day",61.9 fL
same,MONOCYTE,"[…], time 6 day",1.6%
same,NEUTROPHIL,"[…], time 6 day",10.43%
same,PLATELET COUNT,"[…], time 6 day",1317.33 x10E3/uL
same,BASOPHIL,"[…], time 14 day",0.38%
same,EOSINOPHIL,"[…], time 14 day",1.98%
same,ERYTHROCYTE COUNT,"[…], time 14 day",8.11 x10E6/uL
same,HEMATOCRIT,"[…], time 14 day",53.9%
same,HEMOGLOBIN,"[…], time 14 day",15.78 G/DL
same,LEUKOCYTE COUNT,"[…], time 14 day",13.93 x10E3/uL
same,LYMPHOCYTE,"[…], time 14 day",77.98%
same,MEAN CORPUSCULAR HEMOGLOBIN,"[…], time 14 day",19.5 pg
same,MEAN CORPUSCULAR HEMOGLOBIN CONCENTRATION,"[…], time 14 day",29.3 G/DL
same,MEAN CORPUSCULAR VOLUME,"[…], time 14 day",66.52 fL
same,MONOCYTE,"[…], time 14 day",1.82%
same,NEUTROPHIL,"[…], time 14 day",17.32%
same,PLATELET COUNT,"[…], time 14 day",1210 x10E3/uL
same,ALANINE AMINOTRANSFERASE,"[…], time 6 day",38.33 u/L
same,ALBUMIN,"[…], time 6 day",3.9 G/DL
same,ALKALINE PHOSPHATASE,"[…], time 6 day",248.33 u/L
same,ASPARTATE AMINOTRANSFERASE,"[…], time 6 day",85.33 u/L
same,BLOOD UREA NITROGEN,"[…], time 6 day",17 mg/dL
same,CARBON DIOXIDE,"[…], time 6 day",24 mmol/L
same,CHLORIDE,"[…], time 6 day",109.67 MEQ/L
same,CHOLESTEROL,"[…], time 6 day",81 mg/dL
same,CREATINE PHOSPHOKINASE,"[…], time 6 day",545 u/L
same,CREATININE,"[…], time 6 day",0.33 mg/dL
same,GLUCOSE,"[…], time 6 day",171.67 mg/dL
same,LACTATE DEHYDROGENASE,"[…], time 6 day",134.33 u/L
same,LIPASE,"[…], time 6 day",4.67 u/L
same,PHOSPHORUS,"[…], time 6 day",12.5 mg/dL
same,POTASSIUM,"[…], time 6 day",7.1 MEQ/L
same,SODIUM,"[…], time 6 day",619.67 MEQ/L
same,TOTAL BILIRUBIN,"[…], time 6 day",0.23 mg/dL
same,TOTAL PROTEIN,"[…], time 6 day",6.6 G/DL
same,URIC ACID,"[…], time 6 day",1.57 mg/dL
same,ALANINE AMINOTRANSFERASE,"[…], time 14 day",49.8 u/L
same,ALBUMIN,"[…], time 14 day",4.38 G/DL
same,ALKALINE PHOSPHATASE,"[…], time 14 day",322.6 u/L
same,ASPARTATE AMINOTRANSFERASE,"[…], time 14 day",75 u/L
same,BLOOD UREA NITROGEN,"[…], time 14 day",15.6 mg/dL
same,CARBON DIOXIDE,"[…], time 14 day",27.6 mmol/L
same,CHLORIDE,"[…], time 14 day",104.8 MEQ/L
same,CHOLESTEROL,"[…], time 14 day",84.4 mg/dL
same,CREATINE PHOSPHOKINASE,"[…], time 14 day",289.2 u/L
same,CREATININE,"[…], time 14 day",0.42 mg/dL
same,GLUCOSE,"[…], time 14 day",153.6 mg/dL
same,LACTATE DEHYDROGENASE,"[…], time 14 day",57.2 u/L
same,LIPASE,"[…], time 14 day",7.2 u/L
same,PHOSPHORUS,"[…], time 14 day",13.42 mg/dL
same,POTASSIUM,"[…], time 14 day",6.7 MEQ/L
same,SODIUM,"[…], time 14 day",151.4 MEQ/L
same,TOTAL BILIRUBIN,"[…], time 14 day",0.34 mg/dL
same,TOTAL PROTEIN,"[…], time 14 day",7.08 G/DL
same,URIC ACID,"[…], time 14 day",1.5 mg/dL
